# In the supplement of paper PMC10307832:
# What was measured:
# Experiment in all cases: relative viability (nuclei count vs DMSO), 5 days (fraction); higher = more cells survive
# [1] = compound: Cc1ccc(-n2nc(C(C)(C)C)cc2NC(=O)Nc2ccc(OCCN3CCOCC3)c3ccccc23)cc1 [Doramapimod] + CC(=O)Nc1cccc(-n2c(=O)n(C3CC3)c(=O)c3c(Nc4ccc(I)cc4F)n(C)c(=O)c(C)c32)c1 [Trametinib] (partner 0.02 µM)
# How it was run: (§1)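 Lung cancer cell lines were seeded in 1536-well plates and dosed by pin tool the next day, with either a single drug or a fixed anchor-drug dose combined with five library-drug doses (not always all listed) spaced in √10 steps. Five days later, one step fixed the cells and stained their nuclei (final 0.05% Triton X-100, 1% formaldehyde, 1 ug/ml Hoechst), and nuclei were counted on 4× images. Relative viability is the nuclei count in treated wells divided by the count in vehicle wells, and each value is the median of duplicate plates.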
# [2] = compound: C1=CC=C2C(=C1)C=CC(=C2SSC3=C(C=CC4=CC=CC=C43)O)O [IPA-3] + CS(=O)(=O)N1CCN(Cc2cc3nc(-c4cccc5[nH]ncc45)nc(N4CCOCC4)c3s2)CC1 [Pictilisib] (partner 1 µM)
# How it was run: as §1
# [3] = compound: C1=CC=C2C(=C1)C=CC(=C2SSC3=C(C=CC4=CC=CC=C43)O)O [IPA-3] + CS(=O)(=O)CCNCc1ccc(-c2ccc3ncnc(Nc4ccc(OCc5cccc(F)c5)c(Cl)c4)c3c2)o1 [Lapatinib] (partner 2 µM)
# How it was run: as §1
# [4] = compound: C1=CC=C2C(=C1)C=CC(=C2SSC3=C(C=CC4=CC=CC=C43)O)O [IPA-3] + Cc1nc(Nc2ncc(C(=O)Nc3c(C)cccc3Cl)s2)cc(N2CCN(CCO)CC2)n1 [Dasatinib] (partner 0.075 µM)
# How it was run: as §1
cell line,measurement,setting,value
UMC-11,relative viability,[1]; first compound 0.02 µM,0.689
same,relative viability,[1]; first compound 0.06325 µM,0.638
same,relative viability,[1]; first compound 0.2 µM,0.621
same,relative viability,[1]; first compound 0.6325 µM,0.463
same,relative viability,[1]; first compound 2 µM,0.539
same,relative viability,[2]; first compound 0.2 µM,0.982
same,relative viability,[2]; first compound 0.6325 µM,0.815
same,relative viability,[2]; first compound 2 µM,0.776
same,relative viability,[2]; first compound 6.325 µM,0.665
same,relative viability,[2]; first compound 20 µM,0.763
same,relative viability,[3]; first compound 0.2 µM,0.944
same,relative viability,[3]; first compound 0.6325 µM,1.1
same,relative viability,[3]; first compound 2 µM,0.956
same,relative viability,[3]; first compound 6.325 µM,0.804
same,relative viability,[3]; first compound 20 µM,1.06
same,relative viability,[4]; first compound 0.2 µM,0.605
same,relative viability,[4]; first compound 0.6325 µM,0.421
same,relative viability,[4]; first compound 2 µM,0.483
same,relative viability,[4]; first compound 6.325 µM,0.446
same,relative viability,[4]; first compound 20 µM,0.489
